Reference: patent EP4215195A1, “LANATOSIDE C, CLOPIDOGREL, AND R406 IN TREATMENT OF CVD-CLONAL HEMATOPOIESIS OF INDETERMINATE POTENTIAL (CVD-CHIP)” (Genome Biologics UG, priority 2022, dated 2023)

Columns and labels:
[1] = system: CHIP (siTET2) myeloid cells; assay: Synthetic lethality screen of a CVD drug library, alamarBlue Cell Viability assay, CHIP cells; type: cell-based; settings: THP-1 cells with TET2 siRNA knockdown; drugs 100 µM, 48 hours; compared with Vehicle
Procedure: (§1) The established disease model can subsequently be used for drug screening. Thus, a synthetic lethality screening of a CVD (cardiovascular disease) drug library was performed, treating CHIP (siTET2) or healthy (siScr) myeloid cells.
(§2) THP-1 cells were purchased from DSMZ (ACC 16) and maintained in RPMI-1640 (Gibco) +10% Fetal Calf Serum, 1% Penicillin/Streptomycin, 1% Glutamine, 0.05 mM 2-Mercaptoethanol.
(§3) THP-1 cells were differentiated from monocytes to macrophages by supplementing the media 100 ng/mL PMA and culturing for 48 h, and then in PMA-free media for another 24 h. For routine culturing, cells were maintained at 37°C, 5% CO2, 20% O2. In cardiopathologic culturing, both THP1 cells and organoids were maintained hypoxic conditions at 37°C, 5% CO2, 1% O2.
(§4) Transfection of THP-1 cells with siRNA purchased as ON-TARGETplus pools from Horizon Discovery (TET2 siRNA pool containing: ACAAGAAAGUAGAGGGUAU (SEQ ID NO 001), ACACCUAGUUUCAGAGAAU (SEQ ID NO 002), CCUCAGAAUAAUUGUGUGA (SEQ ID NO 003), CAGCAAAGGUACUUGAUAC (SEQ ID NO 004); Control siRNA pool containing: UGGUUUACAUGUUGUGUGA (SEQ ID NO 005), UGGUUUACAUGUUUUCCUA (SEQ ID NO 006)).
(§5) Working solution of 50µM siRNA was prepared in siRNA Buffer (ThermoFisher). 2 µL of 50µM siRNA were mixed with 500 µL OptiMEM and 6.25µL LTX Reagent PLUS (ThermoFisher) and incubated at room temperature (RT) for 15 min. 6.25 µL Lipofectamine LTX was added, mixed, and incubated for 30 min at RT. 500 µL were then added to the target culture and the culture was incubated at 37°C, 5% CO2. Passaging and/or media change was performed after 24 h.
(§6) THP-1 monocytes and macrophages were cocultured overnight (18 h) with siRNA. They were then washed with PBS and used for either TET2 knockdown quality control (as described below) or for the drug screening. For the screening, cells were transferred from tissue culture flasks to 384-well plates. Drugs were added to a final concentration of 100 µM and incubated for 48 hours. An alamarBlue Cell Viability assay (Invitrogen) with a 4 h incubation was performed according to the manufacturer's instructions.

[2] = system: CHIP (siTET2) myeloid cells; assay: Trypan Blue Assay (cell death), CHIP cells; type: cell-based
[3] = system: healthy (siScr) myeloid cells; assay: Synthetic lethality screen of a CVD drug library, alamarBlue Cell Viability assay, healthy cells; type: cell-based; settings: THP-1 cells with control siRNA; drugs 100 µM, 48 hours; compared with Vehicle
Procedure: as §1, §2, §3, §4, §5, §6

[4] = system: healthy (siScr) myeloid cells; assay: Trypan Blue Assay (cell death), healthy cells; type: cell-based
[5] = system: healthy (siScr) myeloid cells; assay: Cl. Caspase Assay (apoptosis), healthy cells; type: cell-based
[6] = system: CHIP-infiltrated cardiac organoids (siTET2); assay: Cardiomyocyte apoptosis in cardiac organoids (Cleaved Caspase staining colocalized with α-Actinin); type: cell-based, human; settings: siTET2 organoids treated vs Vehicle; healthy = siScr
Text: To assess the CM death, the inventors used cleaved caspase staining which labels apoptotic cells. […] The increase in CM death in the TET2 KD group is further verified by an increase in cardiac troponin T (cTNT), a prognostic cardiac damage clinical biomarker (* p <0.05).

[7] = system: CHIP (siTET2) myeloid cells; assay: Cl. Caspase Assay (apoptosis), CHIP cells; type: cell-based
[8] = system: CHIP-infiltrated cardiac organoids (siTET2); assay: cTNT assay (Human Cardiac Troponin T ELISA) in organoid coculture; type: cell-based; settings: siTET2 organoids treated vs Vehicle; healthy = siScr; 3 days of culturing
Procedure: The cTNT assay was performed using the Human Cardiac Troponin T ELISA® Kit (ab223860, Abcam) following the manufacturer's instructions.

[9] = system: CHIP-infiltrated cardiac organoids (siTET2); assay: Myeloid cell infiltration into cardiac organoids (Qtracker staining, coculture); settings: siTET2 organoids treated vs Vehicle; baseline siScr Vehicle; hypoxic coculture, 3 days
Procedure: These MCs were utilized in the coculturing system with self-organized human cardiac organoids, where they were tracked using a Qtracker stain.
(§7) Macrophages were differentiated from THP1 monocytes, then treated with siRNAs (18 h incubation), washed, and labeled with Qtracker™ 655 Cell Labeling Kit (ThermoFisher) for 1 h according to the manufacturer's instructions, washed with PBS, and dissociated with 0.05% trypsin. Macrophages were then added to organoids and cultured at 37°C, 5% CO2, and 1%O2. Cultures were maintained in 96-well U-bottom plates.
(§8) Immunostaining, RNA extraction and cTNT assays were run after 3 days of culturing.
After an overnight PFA fixation, the organoids were washed with PBS, then treated with 1% TritonX-100 (in PBS) for 45 minutes. Afterwards, they are incubated with PBS for 10 minutes for washing. 5% horse serum (in PBS) is added to block and incubated for 45 minutes (RT) Primary antibody in 2% horse serum + 0.0002% TritonX-100 was added and the samples were incubated at 4°C overnight. Primary antibodies: Anti-Sarcomeric-actinin (Ab68167, anti-human), Anti-Cleaved Caspase-3 (Ab32042, anti-human). Samples were washed with PBS + 0.002% TritonX-100 6x10min. Secondary antibodies and additional stains were added and incubated for 4h at RT: AlexaFlour 488 (Invitrogen, A11070), AlexaFlour 555 (Invitrogen, A21425), DAPI, Qtracker labelling 655 (Invitrogen, Q25021 MP). Samples were washed by incubating with PBS+0.002%TritonX-100 for 2-3 hours at RT), and mounted on Superfrost Plus Adhesion Slides (ThermoFisher) sing transparent polish to seal the slide sides to the coverslips (Roth). Samples were imaged using SP8 Lightning Leica Confocal Microscope, using a 40x objective (for a total of 800x and 300x magnification with zoom factors and eye lenses).

[10] = system: cardiac organoids infiltrated with CHIP myeloid cells; assay: Gene expression (RNA levels of markers) in cardiac organoids infiltrated with CHIP myeloid cells; type: cell-based, human; settings: treated vs Vehicle; normalized to healthy state = 1.0
Procedure: as §7, §8

| Compound | viability of CHIP myeloid cells (siTET2) [1] | levels of cell death of CHIP myeloid cells (Trypan Blue Assay) [2] | viability of healthy (siScr) cells [3] | cell death of healthy (siScr) cells (Trypan Blue Assay) [4] | apoptosis of healthy (siScr) cells (CI. Caspase Assay) [5] | cardiomyocyte apoptosis levels (areas of Cleaved Caspase staining) [6] | apoptosis of CHIP myeloid cells (CI. Caspase Assay) [7] | levels of the prognostic marker cTNT [8] | infiltration of myeloid cells into organoids (Qtracker-stained area) [9] | RNA levels of myeloid, inflammatory, heart failure and fibrotic markers [10] |
| --- | --- | --- | --- | --- | --- | --- | --- | --- | --- | --- |
| COC(=O)[C@H](c1ccccc1Cl)N1CCc2sccc2C1 [Clopidogrel, clopidogrel] | selectively inhibit the viability of CHIP myeloid cells (siTET2) | increase the levels of cell death of CHIP myeloid cells | without compromising the viability of healthy (siScr) cells | without inflicting harm on the healthy (siScr) cells | without inflicting harm on the healthy (siScr) cells | decreased areas of Cleaved Caspase staining back towards healthy levels | increase the levels of cell death of CHIP myeloid cells (Trypan Blue Assay) and apoptosis in particular | decreased back to healthy levels | decreased levels of Qtracker-stained area upon treatment of siTET2 cells back to the baseline healthy levels | rescued upon treatment with the 3 aforementioned drugs back down towards healthy levels (≤1.0) |
| C[C@H]1O[C@@H](O[C@H]2[C@@H](O)C[C@H](O[C@H]3[C@@H](O)C[C@H](O[C@H]4CC[C@@]5(C)[C@H](CC[C@@H]6[C@@H]5CC[C@]5(C)[C@@H](C7=CC(=O)OC7)CC[C@]65O)C4)O[C@@H]3C)O[C@@H]2C)C[C@H](O)[C@@H]1O [Digitoxin] | only Ginsenoside Rb1 was found to do so significantly |  |  |  |  |  |  |  |  |  |
| CC(C)=CCC[C@](C)(O[C@@H]1O[C@H](CO[C@@H]2O[C@H](CO)[C@@H](O)[C@H](O)[C@H]2O)[C@@H](O)[C@H](O)[C@H]1O)[C@H]1CC[C@]2(C)[C@@H]1[C@H](O)C[C@@H]1[C@@]3(C)CC[C@H](O[C@@H]4O[C@H](CO)[C@@H](O)[C@H](O)[C@H]4O[C@@H]4O[C@H](CO)[C@@H](O)[C@H](O)[C@H]4O)C(C)(C)[C@@H]3CC[C@]12C [Ginsenoside Rb1] | found to do so significantly |  | also decreases the viability of healthy cells |  |  |  |  |  |  |  |
| CC(=O)O[C@H]1C[C@H](O[C@H]2[C@@H](O)C[C@H](O[C@H]3[C@@H](O)C[C@H](O[C@H]4CC[C@@]5(C)[C@H](CC[C@@H]6[C@@H]5C[C@@H](O)[C@]5(C)[C@@H](C7=CC(=O)OC7)CC[C@]65O)C4)O[C@@H]3C)O[C@@H]2C)O[C@H](C)[C@H]1O[C@@H]1O[C@H](CO)[C@@H](O)[C@H](O)[C@H]1O [Lanatoside C, lanatoside C] | selectively inhibit the viability of CHIP myeloid cells (siTET2) | increase the levels of cell death of CHIP myeloid cells | without compromising the viability of healthy (siScr) cells | without inflicting harm on the healthy (siScr) cells | without inflicting harm on the healthy (siScr) cells | decreased areas of Cleaved Caspase staining back towards healthy levels | increase the levels of cell death of CHIP myeloid cells (Trypan Blue Assay) and apoptosis in particular | decreased back to healthy levels | decreased levels of Qtracker-stained area upon treatment of siTET2 cells back to the baseline healthy levels | rescued upon treatment with the 3 aforementioned drugs back down towards healthy levels (≤1.0) |
| COc1cc(Nc2ncc(F)c(Nc3ccc4c(n3)NC(=O)C(C)(C)O4)n2)cc(OC)c1OC [R406] | selectively inhibit the viability of CHIP myeloid cells (siTET2) | increase the levels of cell death of CHIP myeloid cells | without compromising the viability of healthy (siScr) cells | without inflicting harm on the healthy (siScr) cells | without inflicting harm on the healthy (siScr) cells | decreased areas of Cleaved Caspase staining back towards healthy levels | increase the levels of cell death of CHIP myeloid cells (Trypan Blue Assay) and apoptosis in particular | decreased back to healthy levels | decreased levels of Qtracker-stained area upon treatment of siTET2 cells back to the baseline healthy levels | rescued upon treatment with the 3 aforementioned drugs back down towards healthy levels (≤1.0) |
| CCCSc1nc(N[C@@H]2C[C@H]2c2ccc(F)c(F)c2)c2nnn([C@@H]3C[C@H](OCCO)[C@@H](O)[C@H]3O)c2n1 [Ticagrelor] |  |  | also decrease the viability of healthy cells |  |  |  |  |  |  |  |
| CCCCC[C@H](O)CC[C@@H]1[C@H]2Cc3cccc(OCC(=O)O)c3C[C@H]2C[C@H]1O [Treprostinil Sodium] |  |  | also decrease the viability of healthy cells |  |  |  |  |  |  |  |
| CC(=O)Oc1cc(C(F)(F)F)ccc1C(=O)O [Triflusal] |  |  | also decrease the viability of healthy cells |  |  |  |  |  |  |  |
| Escin | only Ginsenoside Rb1 was found to do so significantly |  |  |  |  |  |  |  |  |  |
